Where a name gives a salt, the structure may show the parent alone.
Assays:
[1] = Metabolic stability of liver microsomes in vitro; type: in vitro ADME, SD rat; details: Rat liver microsomes 0.5 mg/mL, compound 1 μM; for CLint scaled at 1 μM: Sprague-Dawley
Method: (§1) SD rat, mouse, beagle, cynomolgus monkey and human microsomes were purchased from Corning, Xenotech or BioIVT and stored in a −80° C. freezer.
(§2) 1.2 Nicotinamide adenine dinucleotide phosphate, reduced (NADPH), supplier: Chem-impex international, catalog number: 00616.
(§3) 1.3 Control compounds: testosterone, diclofenac, propafenone.
(§4) Stock solution: 10 mM DMSO solution.
(§5) Working concentration preparation: 100% acetonitrile diluted to 100 μM (organic phase content: 99% ACN, 1% DMSO).
(§6) Prepare two 96-well incubation plates, which were named T60 incubation plate and NCF60 incubation plate, respectively.
(§7) 445 μL of microsomal working solution (liver microsomal protein concentration of 0.56 mg/mL) was added to the T60 incubation plate and NCF60 incubation plate, respectively, and then the above incubation plates were preincubated in a 37° C. water bath for about 10 minutes.
(§8) After the preincubation, 5 μL of test substance or working solution of control compound were added to the T60 incubation plate and NCF60 incubation plate, respectively, and mixed well. The reaction was initiated by adding 50 μL of potassium phosphate buffer to each well of the NCF60 incubation plate; 180 μL of termination solution (acetonitrile solution containing 200 ng/mL tolbutamide and 200 ng/mL labetalol) and 6 μL of NADPH regeneration system working solution were added to the TO termination plate, and 54 μL of sample was removed from the T60 incubation plate to the TO termination plate (TO sample generation). The reaction was initiated by adding 44 μL NADPH regeneration system working solution to each well of the T60 incubation plate. 54 μL of microsomal working solution, 6 μL of NADPH regeneration system working solution and 180 μL of termination solution were added only to the blank plate. Therefore, in the samples of the test or control compounds, the final reaction concentration of compound, testosterone, diclofenac and propafenone was 1 μM, the concentration of liver microsomes was 0.5 mg/mL, and the final concentration of DMSO and acetonitrile in the reaction system were 0.01% (v/v) and 0.99% (v/v), respectively.
(§9) After incubation for an appropriate time (e.g. 5, 10, 20, 30 and 60 minutes), 180 μL of termination solution (acetonitrile solution containing 200 ng/mL tolbutamide and 200 ng/mL labetalol) was added to the sample well of each termination plate, respectively, and then 60 μL of sample was removed from the T60 incubation plate to terminate the reaction.
(§10) All sample plates were shaken well and centrifuged at 3220×g for 20 minutes, then 80 μL of supernatant per well was diluted into 240 μL of purified water for liquid chromatography tandem mass spectrometry analysis.
(§11) All samples were injected for analysis.

[2] = Metabolic stability of liver microsomes in vitro; type: in vitro ADME; details: compound 1 μM
Method: as §1, §2, §3, §4, §5, §6, §7, §8, §9, §10, §11

[3] = Metabolic stability of liver microsomes in vitro; type: in vitro ADME, beagle; details: Dog liver microsomes 0.5 mg/mL, compound 1 μM; for CLint scaled at 1 μM: beagle
Method: as §1, §2, §3, §4, §5, §6, §7, §8, §9, §10, §11

DDR2 = target: T1, DDR2 (Homo sapiens, UniProt Q16832); assay: 33P isotope-labeled kinase activity assay (Reaction Biology Corp); type: biochemical; details: 33P-ATP at Km concentration
T1 construct: purchased Reaction Biology Corp
T1 sequence (Q16832 22-855): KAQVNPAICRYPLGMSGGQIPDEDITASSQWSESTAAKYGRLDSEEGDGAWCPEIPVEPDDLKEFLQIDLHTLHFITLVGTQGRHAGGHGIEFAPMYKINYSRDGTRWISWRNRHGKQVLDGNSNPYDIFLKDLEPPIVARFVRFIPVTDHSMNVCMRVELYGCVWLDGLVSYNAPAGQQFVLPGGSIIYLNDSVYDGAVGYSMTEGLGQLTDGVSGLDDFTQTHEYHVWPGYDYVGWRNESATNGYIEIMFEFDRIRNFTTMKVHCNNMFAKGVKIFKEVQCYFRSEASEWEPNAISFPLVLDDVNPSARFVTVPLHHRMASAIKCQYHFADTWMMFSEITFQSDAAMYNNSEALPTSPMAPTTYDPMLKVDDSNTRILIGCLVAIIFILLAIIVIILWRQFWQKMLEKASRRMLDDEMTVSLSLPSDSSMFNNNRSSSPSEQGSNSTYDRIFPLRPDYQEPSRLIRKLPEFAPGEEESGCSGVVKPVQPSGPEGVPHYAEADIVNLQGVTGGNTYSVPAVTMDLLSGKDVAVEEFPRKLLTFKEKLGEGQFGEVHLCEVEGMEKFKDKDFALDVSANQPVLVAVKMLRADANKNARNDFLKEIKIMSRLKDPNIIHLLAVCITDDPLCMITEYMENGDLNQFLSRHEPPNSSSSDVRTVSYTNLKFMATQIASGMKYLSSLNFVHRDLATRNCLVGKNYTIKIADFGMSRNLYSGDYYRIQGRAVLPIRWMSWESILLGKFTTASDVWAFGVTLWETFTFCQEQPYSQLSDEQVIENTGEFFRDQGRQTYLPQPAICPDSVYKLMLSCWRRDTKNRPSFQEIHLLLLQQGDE
Method: (§12) The ^33P isotope-labeled kinase activity assay (Reaction Biology Corp) was used to determine the IC50 value to evaluate the inhibitory ability of the test compounds to Axl, c-Kit, Mer, DDR2, VEGFR1, VEGFR2, VEGFR3, TrkA, and FLT3.
(§13) Buffer conditions: 20 mM hydroxyethylpiperazine […] (Hepes) (pH 7.5), 10 mM MgCl2, 1 mM ethylene glycol bisaminoethyl ether tetraacetic acid (EGTA), 0.02% polyoxyethylene dodecane Ether (Brij35), 0.02 mg/ml BSA, 0.1 mM Na3VO4, 2 mM dithiothreitol (DTT), 1% DMSO.
(§14) Compound Treatment: Test compounds were dissolved in 100% DMSO and diluted serially to a specific concentration with DMSO by Integra Viaflo Assist.
(§15) Test procedure: The substrate was dissolved in freshly prepared buffer, the tested kinase was added and gently mixed well. The DMSO solution containing the test compound was added to the above well mixed reaction solution using acoustic technique (Echo 550) and incubated at room temperature for […]. The compound concentrations in the reaction solution were 3 μM, 1 μM, 0.333 μM, 0.111 μM, 0.0370 μM, 0.0123 μM, 4.12 nM, 1.37 nM, 0.457 nM, 0.152 nM. After 15 minutes of incubation, ^33P-ATP (activity 0.01 μCi/μL, Km concentration) was added to start the reaction. The reaction was carried out at room temperature for 120 minutes, then radioactivity was detected by filter binding method. The kinase activity data were expressed by comparison between the kinase activity containing the test compound and the kinase activity of the blank group (containing DMSO only), and the IC50 values were obtained by curve fitting using Prism4 software (GraphPad), and the experimental results are shown in Table 1.

VEGFR1 = target: T2, VEGFR1 (Homo sapiens, UniProt P17948); assay: as above; type: biochemical; details: 33P-ATP at Km concentration
T2 construct: purchased Reaction Biology Corp
T2 sequence (P17948 27-1338): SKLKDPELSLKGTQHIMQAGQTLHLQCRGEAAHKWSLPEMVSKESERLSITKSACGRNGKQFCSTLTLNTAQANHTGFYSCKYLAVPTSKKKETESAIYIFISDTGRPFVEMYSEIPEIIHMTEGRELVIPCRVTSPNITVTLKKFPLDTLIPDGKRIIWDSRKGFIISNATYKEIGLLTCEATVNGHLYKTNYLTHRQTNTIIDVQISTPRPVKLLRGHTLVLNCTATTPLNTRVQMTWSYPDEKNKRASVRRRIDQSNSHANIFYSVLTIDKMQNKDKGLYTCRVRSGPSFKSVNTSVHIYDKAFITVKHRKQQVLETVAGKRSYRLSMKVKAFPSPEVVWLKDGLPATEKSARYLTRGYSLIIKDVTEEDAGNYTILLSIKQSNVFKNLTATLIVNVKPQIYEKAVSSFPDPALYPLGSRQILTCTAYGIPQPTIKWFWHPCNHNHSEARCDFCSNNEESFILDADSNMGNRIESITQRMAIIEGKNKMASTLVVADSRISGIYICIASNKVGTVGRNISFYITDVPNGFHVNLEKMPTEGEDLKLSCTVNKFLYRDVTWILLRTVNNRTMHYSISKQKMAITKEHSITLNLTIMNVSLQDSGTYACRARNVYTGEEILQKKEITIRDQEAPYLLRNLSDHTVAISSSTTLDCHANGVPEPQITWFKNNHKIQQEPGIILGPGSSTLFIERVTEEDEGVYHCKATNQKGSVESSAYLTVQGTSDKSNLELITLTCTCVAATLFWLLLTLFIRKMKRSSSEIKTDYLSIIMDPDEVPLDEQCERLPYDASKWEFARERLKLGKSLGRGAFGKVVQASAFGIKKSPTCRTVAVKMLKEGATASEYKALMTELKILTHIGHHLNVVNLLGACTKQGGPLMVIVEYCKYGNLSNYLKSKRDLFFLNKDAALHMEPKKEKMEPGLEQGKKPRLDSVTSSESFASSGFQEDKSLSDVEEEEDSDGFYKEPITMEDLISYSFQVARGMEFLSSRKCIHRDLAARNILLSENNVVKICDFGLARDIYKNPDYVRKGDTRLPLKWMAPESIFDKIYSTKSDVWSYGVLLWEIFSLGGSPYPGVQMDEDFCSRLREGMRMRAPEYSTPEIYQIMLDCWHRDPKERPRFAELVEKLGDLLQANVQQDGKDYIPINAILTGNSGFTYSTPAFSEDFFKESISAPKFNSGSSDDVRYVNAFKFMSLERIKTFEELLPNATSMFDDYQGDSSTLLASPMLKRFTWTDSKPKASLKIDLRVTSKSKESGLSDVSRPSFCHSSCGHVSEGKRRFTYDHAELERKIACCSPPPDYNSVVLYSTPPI
Method: as §12, §13, §14, §15

VEGFR2 = target: T3, VEGFR2 (Homo sapiens, UniProt P35968); assay: as above; type: biochemical; details: 33P-ATP at Km concentration
T3 construct: purchased Reaction Biology Corp
T3 sequence (P35968 20-1356): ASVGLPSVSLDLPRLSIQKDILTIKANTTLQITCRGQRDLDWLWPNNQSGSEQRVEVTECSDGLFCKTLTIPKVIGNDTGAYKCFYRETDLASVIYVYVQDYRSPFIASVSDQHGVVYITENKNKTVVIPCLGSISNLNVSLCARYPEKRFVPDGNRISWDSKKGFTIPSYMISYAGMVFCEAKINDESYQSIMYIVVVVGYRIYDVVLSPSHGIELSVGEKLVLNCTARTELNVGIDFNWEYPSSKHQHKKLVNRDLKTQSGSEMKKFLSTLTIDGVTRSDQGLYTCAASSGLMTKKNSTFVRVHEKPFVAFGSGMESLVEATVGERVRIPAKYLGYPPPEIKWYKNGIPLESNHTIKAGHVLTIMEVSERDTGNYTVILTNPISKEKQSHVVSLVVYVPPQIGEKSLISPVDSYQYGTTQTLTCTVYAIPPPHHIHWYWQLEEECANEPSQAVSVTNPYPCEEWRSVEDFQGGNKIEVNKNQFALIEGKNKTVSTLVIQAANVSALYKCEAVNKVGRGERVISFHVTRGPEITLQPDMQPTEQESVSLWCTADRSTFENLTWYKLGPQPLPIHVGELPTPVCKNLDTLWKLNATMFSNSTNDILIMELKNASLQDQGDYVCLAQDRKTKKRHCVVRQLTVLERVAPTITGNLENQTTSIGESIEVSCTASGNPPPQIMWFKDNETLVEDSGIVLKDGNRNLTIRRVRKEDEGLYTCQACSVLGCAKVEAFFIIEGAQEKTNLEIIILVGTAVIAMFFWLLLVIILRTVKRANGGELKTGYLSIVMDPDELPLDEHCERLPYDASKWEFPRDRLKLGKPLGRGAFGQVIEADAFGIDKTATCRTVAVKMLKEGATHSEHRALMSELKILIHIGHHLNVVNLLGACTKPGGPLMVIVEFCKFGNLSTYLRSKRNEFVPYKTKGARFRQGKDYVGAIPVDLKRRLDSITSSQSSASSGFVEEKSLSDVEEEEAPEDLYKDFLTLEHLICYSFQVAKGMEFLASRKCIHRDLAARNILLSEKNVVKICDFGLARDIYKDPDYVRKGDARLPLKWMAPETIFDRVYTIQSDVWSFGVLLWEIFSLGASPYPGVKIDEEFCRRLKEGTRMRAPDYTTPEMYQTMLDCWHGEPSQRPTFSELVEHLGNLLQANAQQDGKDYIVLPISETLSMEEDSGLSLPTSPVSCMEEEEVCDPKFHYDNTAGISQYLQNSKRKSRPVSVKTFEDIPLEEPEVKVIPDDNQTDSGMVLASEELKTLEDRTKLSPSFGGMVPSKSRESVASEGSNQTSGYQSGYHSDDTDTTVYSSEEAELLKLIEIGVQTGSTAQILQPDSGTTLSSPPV
Method: as §12, §13, §14, §15

VEGFR3 = target: T4, VEGFR3 (Homo sapiens, UniProt P35916); assay: as above; type: biochemical; details: 33P-ATP at Km concentration
T4 construct: purchased Reaction Biology Corp
T4 sequence (P35916 25-1363): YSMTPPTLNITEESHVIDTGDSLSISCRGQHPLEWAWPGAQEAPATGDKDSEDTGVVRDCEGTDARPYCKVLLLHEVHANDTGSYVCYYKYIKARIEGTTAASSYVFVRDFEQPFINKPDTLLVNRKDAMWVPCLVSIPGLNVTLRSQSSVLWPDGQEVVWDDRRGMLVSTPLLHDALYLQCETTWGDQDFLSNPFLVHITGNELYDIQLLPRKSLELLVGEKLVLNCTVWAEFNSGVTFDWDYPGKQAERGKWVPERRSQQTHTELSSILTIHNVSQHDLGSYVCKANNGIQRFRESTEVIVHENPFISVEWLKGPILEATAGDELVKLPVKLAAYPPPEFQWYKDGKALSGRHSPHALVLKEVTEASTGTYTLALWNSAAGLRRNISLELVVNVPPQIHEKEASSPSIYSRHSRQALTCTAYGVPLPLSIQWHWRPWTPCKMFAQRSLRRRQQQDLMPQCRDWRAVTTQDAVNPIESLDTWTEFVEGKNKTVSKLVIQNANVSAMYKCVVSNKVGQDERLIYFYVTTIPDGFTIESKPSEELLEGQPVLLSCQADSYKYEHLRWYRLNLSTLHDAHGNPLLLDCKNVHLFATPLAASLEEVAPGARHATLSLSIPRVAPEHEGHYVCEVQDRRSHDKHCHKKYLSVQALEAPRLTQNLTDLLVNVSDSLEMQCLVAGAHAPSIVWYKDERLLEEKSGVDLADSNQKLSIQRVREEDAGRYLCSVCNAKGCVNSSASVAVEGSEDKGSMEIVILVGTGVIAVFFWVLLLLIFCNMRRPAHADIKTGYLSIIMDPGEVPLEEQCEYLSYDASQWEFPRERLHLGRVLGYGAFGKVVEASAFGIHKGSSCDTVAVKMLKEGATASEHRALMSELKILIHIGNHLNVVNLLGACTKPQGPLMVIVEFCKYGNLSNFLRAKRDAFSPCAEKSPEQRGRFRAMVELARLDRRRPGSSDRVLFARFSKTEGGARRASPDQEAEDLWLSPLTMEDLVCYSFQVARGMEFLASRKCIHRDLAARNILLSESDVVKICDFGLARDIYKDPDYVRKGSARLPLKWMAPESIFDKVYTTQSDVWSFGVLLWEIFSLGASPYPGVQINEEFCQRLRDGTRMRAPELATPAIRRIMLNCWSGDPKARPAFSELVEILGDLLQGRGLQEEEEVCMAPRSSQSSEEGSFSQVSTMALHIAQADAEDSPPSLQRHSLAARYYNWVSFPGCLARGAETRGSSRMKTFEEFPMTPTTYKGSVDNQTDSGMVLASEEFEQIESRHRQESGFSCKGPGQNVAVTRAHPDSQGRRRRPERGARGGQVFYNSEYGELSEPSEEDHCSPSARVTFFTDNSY
Method: as §12, §13, §14, §15

[4] = Metabolic stability of liver microsomes in vitro; type: in vitro ADME, cynomolgus monkey; details: Monkey liver microsomes 0.5 mg/mL, compound 1 μM
Method: as §1, §2, §3, §4, §5, §6, §7, §8, §9, §10, §11

[5] = Pharmacokinetic evaluation in rats after oral administration; type: in vivo; details: Sprague-Dawley, plasma, 5 mg/kg, SD rat (male), 5 mpk
Method: Testing the pharmacokinetic properties of the compounds of the present disclosure in rats.
The pharmacokinetic characteristics of the compounds in rodents after oral administration were tested by standard protocols. In the experiment, the candidate compounds were formulated into a clarified solution and given to rats for oral administration. The vehicle was 10% NMP/40% PEG400/[…]. Whole blood samples were collected within 24 hours (0.0833, 0.25, 0.5, 1, 2, 4, 6, 8, 24 h), and all blood samples were added to the plastic centrifuge tubes pre-labeled with 0.5 M K2-EDTA anticoagulant.

[6] = Human liver microsomes 0.5 mg/mL
[7] = Mouse liver microsomes 0.5 mg/mL

Row | SMILES | 60 min remaining [1] [%] | CLint scaled at 1 μM [1] [mL/min/kg] | CLint scaled at 1 μM [2, 6] [mL/min/kg] | 60 min remaining [2, 6] [%] | CLint scaled at 1 μM [2, 7] [mL/min/kg] | 60 min remaining [2, 7] [%] | 60 min remaining [3] [%] | CLint scaled at 1 μM [3] [mL/min/kg] | IC50 (DDR2) [nM] | IC50 (VEGFR1) [nM] | IC50 (VEGFR2) [nM] | IC50 (VEGFR3) [nM] | CLint scaled at 1 μM [4] [mL/min/kg] | 60 min remaining [4] [%] | AUC(0-t) [5] [µM·h] | Cmax [5] [nM] | Tmax [5] [h]
1 | [2H]C([2H])([2H])OC([2H])([2H])CNCc1ccc(-c2cc3nccc(Oc4ccc(NC(=O)C5(C(=O)Nc6ccc(F)cc6)CC5)cc4F)c3s2)nc1 [Hydrochloride of 002] | 26.2 | 78.1 | < 8.6 | 96.4 | 301 | 11.3 | 5.4 | 139 | 1.14 | 7.16 | 2.75 | 2.13 | 19.7 | 59.7 | – | – | –
2 | COCCNCc1ccc(-c2cc3nccc(Oc4ccc(NC(=O)C5(C(=O)Nc6ccc(F)cc6)CC5)cc4F)c3s2)nc1 [Sitravatinib, reference compound] | 4.2 | 192 | 10.6 | 71.5 | 460 | 3.30 | 2.6 | 172 | – | – | – | – | 42.8 | 38.5 | 4.79 | 801 | 3
3 | [2H]C([2H])([2H])OCCNCc1ccc(-c2cc3nccc(Oc4ccc(NC(=O)C5(C(=O)Nc6ccc(F)cc6)CC5)cc4F)c3s2)nc1 [Trifluoroacetate of 001] | 28.6 | 71.3 | < 8.6 | 87.1 | 321 | 9.5 | 4.9 | 144 | 0.79 | 10.5 | 2.16 | 2.82 | 22.5 | 55.9 | 6.65 | 930 | 1.25

Source: patent US20230094146A1, “DEUTERATED THIENOPYRIDINE COMPOUND” (MEDSHINE DISCOVERY INC., priority 2020, published 2023)
